Read-outs that look alike come from different tables or passages of the source.
Test system: hiPSC-CMs (iCell-Cardiomyocytes^2)
Outline: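 Spontaneous field potentials and impedance recorded by MEA at 37°C, 5% CO2 in hiPSC-CM monolayers (50 K/well, fibronectin-coated), 5-min baseline before compound; final DMSO 0.1%. Values are percent change from baseline, mean ± SD, compared with DMSO by Wilcoxon-Mann Whitney, interpreted against DMSO tolerance intervals.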

N=C(N)c1ccc(OCCCCCOc2ccc(C(=N)N)cc2)cc1 [Pentamidine]
BR (beating rate), % change from baseline (0.1 µM, 2h): -1±2%
Beating below threshold, number of observations/total well numbers (0.1 µM, 2h): 0/6
Cessation of beating, number of observations/total well numbers (0.1 µM, 2h): 0/6
EAD, number of observations/total well numbers (0.1 µM, 2h): 0/6
FPD (field-potential duration), % change from baseline (0.1 µM, 2h): 2.6±1.2%
FPDc (field-potential duration corrected by beat-rate), % change from baseline (0.1 µM, 2h): 2.2±1.4%
Flat T-wave-like, number of observations/total well numbers (0.1 µM, 2h): 0/6
BR (beating rate), % change from baseline (0.1 µM, 24h): 2±2%
Beating below threshold, number of observations/total well numbers (0.1 µM, 24h): 0/6
Cessation of beating, number of observations/total well numbers (0.1 µM, 24h): 0/6
EAD, number of observations/total well numbers (0.1 µM, 24h): 0/6
FPD (field-potential duration), % change from baseline (0.1 µM, 24h): 2±3.4%
FPDc (field-potential duration corrected by beat-rate), % change from baseline (0.1 µM, 24h): 2.8±3.1%
Flat T-wave-like, number of observations/total well numbers (0.1 µM, 24h): 0/6
BR (beating rate), % change from baseline (0.1 µM, 48h): -4±3%
Beating below threshold, number of observations/total well numbers (0.1 µM, 48h): 0/6
Cessation of beating, number of observations/total well numbers (0.1 µM, 48h): 0/6
EAD, number of observations/total well numbers (0.1 µM, 48h): 0/6
FPD (field-potential duration), % change from baseline (0.1 µM, 48h): 7.3±1.7%
FPDc (field-potential duration corrected by beat-rate), % change from baseline (0.1 µM, 48h): 5.7±2%
Flat T-wave-like, number of observations/total well numbers (0.1 µM, 48h): 0/6
BR (beating rate), % change from baseline (0.1 µM, 72h): -6±3%
Beating below threshold, number of observations/total well numbers (0.1 µM, 72h): 0/6
Cessation of beating, number of observations/total well numbers (0.1 µM, 72h): 0/6
EAD, number of observations/total well numbers (0.1 µM, 72h): 0/6
FPD (field-potential duration), % change from baseline (0.1 µM, 72h): 4.9±2.5%
FPDc (field-potential duration corrected by beat-rate), % change from baseline (0.1 µM, 72h): 3±2.9%
Flat T-wave-like, number of observations/total well numbers (0.1 µM, 72h): 0/6
BR (beating rate), % change from baseline (0.1 µM, 96h): -13±3%
Beating below threshold, number of observations/total well numbers (0.1 µM, 96h): 0/6
Cessation of beating, number of observations/total well numbers (0.1 µM, 96h): 0/6
EAD, number of observations/total well numbers (0.1 µM, 96h): 0/6
FPD (field-potential duration), % change from baseline (0.1 µM, 96h): 9.2±3.1%
FPDc (field-potential duration corrected by beat-rate), % change from baseline (0.1 µM, 96h): 4.3±2.8%
Flat T-wave-like, number of observations/total well numbers (0.1 µM, 96h): 0/6
BR (beating rate), % change from baseline (0.3 µM, 2h): -4±4%
Beating below threshold, number of observations/total well numbers (0.3 µM, 2h): 0/5
Cessation of beating, number of observations/total well numbers (0.3 µM, 2h): 0/5
EAD, number of observations/total well numbers (0.3 µM, 2h): 0/5
FPD (field-potential duration), % change from baseline (0.3 µM, 2h): 9.7±6.7 %
FPDc (field-potential duration corrected by beat-rate), % change from baseline (0.3 µM, 2h): 8±7.4%
Flat T-wave-like, number of observations/total well numbers (0.3 µM, 2h): 0/5
BR (beating rate), % change from baseline (0.3 µM, 24h): 0±3%
Beating below threshold, number of observations/total well numbers (0.3 µM, 24h): 0/5
Cessation of beating, number of observations/total well numbers (0.3 µM, 24h): 0/5
EAD, number of observations/total well numbers (0.3 µM, 24h): 0/5
FPD (field-potential duration), % change from baseline (0.3 µM, 24h): 4.6±3.3%
FPDc (field-potential duration corrected by beat-rate), % change from baseline (0.3 µM, 24h): 4.5±3.1%
Flat T-wave-like, number of observations/total well numbers (0.3 µM, 24h): 0/5
BR (beating rate), % change from baseline (0.3 µM, 48h): -2±4%
Beating below threshold, number of observations/total well numbers (0.3 µM, 48h): 0/5
Cessation of beating, number of observations/total well numbers (0.3 µM, 48h): 0/5
EAD, number of observations/total well numbers (0.3 µM, 48h): 0/5
FPD (field-potential duration), % change from baseline (0.3 µM, 48h): 4.9±2.6%
FPDc (field-potential duration corrected by beat-rate), % change from baseline (0.3 µM, 48h): 4.1±2%
Flat T-wave-like, number of observations/total well numbers (0.3 µM, 48h): 0/5
BR (beating rate), % change from baseline (0.3 µM, 72h): -11±4%
Beating below threshold, number of observations/total well numbers (0.3 µM, 72h): 0/5
Cessation of beating, number of observations/total well numbers (0.3 µM, 72h): 0/5
EAD, number of observations/total well numbers (0.3 µM, 72h): 0/5
FPD (field-potential duration), % change from baseline (0.3 µM, 72h): 10.5±2.1%
FPDc (field-potential duration corrected by beat-rate), % change from baseline (0.3 µM, 72h): 6.4±2.9%
Flat T-wave-like, number of observations/total well numbers (0.3 µM, 72h): 0/5
BR (beating rate), % change from baseline (0.3 µM, 96h): -20±5%
Beating below threshold, number of observations/total well numbers (0.3 µM, 96h): 0/5
Cessation of beating, number of observations/total well numbers (0.3 µM, 96h): 0/5
EAD, number of observations/total well numbers (0.3 µM, 96h): 0/5
FPD (field-potential duration), % change from baseline (0.3 µM, 96h): 17.7±1.7%
FPDc (field-potential duration corrected by beat-rate), % change from baseline (0.3 µM, 96h): 9.3±1.9%
Flat T-wave-like, number of observations/total well numbers (0.3 µM, 96h): 0/5
time point from which physiologically relevant prolongation of FPD and FPDc was observed (1 µM): 48 h
BR (beating rate), % change from baseline (1 µM, 2h): -3±3%
Beating below threshold, number of observations/total well numbers (1 µM, 2h): 0/6
Cessation of beating, number of observations/total well numbers (1 µM, 2h): 0/6
EAD, number of observations/total well numbers (1 µM, 2h): 0/6
FPD (field-potential duration), % change from baseline (1 µM, 2h): 3.6±1.6%
FPDc (field-potential duration corrected by beat-rate), % change from baseline (1 µM, 2h): 2.5±1.7%
Flat T-wave-like, number of observations/total well numbers (1 µM, 2h): 0/6
BR (beating rate), % change from baseline (1 µM, 24h): -7±3%
Beating below threshold, number of observations/total well numbers (1 µM, 24h): 0/6
Cessation of beating, number of observations/total well numbers (1 µM, 24h): 0/6
EAD, number of observations/total well numbers (1 µM, 24h): 0/6
FPD (field-potential duration), % change from baseline (1 µM, 24h): 8±1%
FPDc (field-potential duration corrected by beat-rate), % change from baseline (1 µM, 24h): 5.5±1.6%
Flat T-wave-like, number of observations/total well numbers (1 µM, 24h): 0/6
BR (beating rate), % change from baseline (1 µM, 48h): -16±3 %
Beating below threshold, number of observations/total well numbers (1 µM, 48h): 0/6
Cessation of beating, number of observations/total well numbers (1 µM, 48h): 0/6
EAD, number of observations/total well numbers (1 µM, 48h): 0/6
FPD (field-potential duration), % change from baseline (1 µM, 48h): 21.1±3.4 %
FPDc (field-potential duration corrected by beat-rate), % change from baseline (1 µM, 48h): 14.3±2.3 %
Flat T-wave-like, number of observations/total well numbers (1 µM, 48h): 0/6
BR (beating rate), % change from baseline (1 µM, 72h): -30±2 %
Beating below threshold, number of observations/total well numbers (1 µM, 72h): 0/6
Cessation of beating, number of observations/total well numbers (1 µM, 72h): 0/6
EAD, number of observations/total well numbers (1 µM, 72h): 0/6
FPD (field-potential duration), % change from baseline (1 µM, 72h): 54.7±5.4 %
FPDc (field-potential duration corrected by beat-rate), % change from baseline (1 µM, 72h): 37.5±4.3 %
Flat T-wave-like, number of observations/total well numbers (1 µM, 72h): 0/6
BR (beating rate), % change from baseline (1 µM, 96h): -30±5 %
Beating below threshold, number of observations/total well numbers (1 µM, 96h): 0/6
Cessation of beating, number of observations/total well numbers (1 µM, 96h): 0/6
EAD, number of observations/total well numbers (1 µM, 96h): 0/6
FPD (field-potential duration), % change from baseline (1 µM, 96h): 71.5±10.4 %
FPDc (field-potential duration corrected by beat-rate), % change from baseline (1 µM, 96h): 52.5±8.8 %
Flat T-wave-like, number of observations/total well numbers (1 µM, 96h): 0/6
time point from which physiologically relevant prolongation of FPD and FPDc was observed (3 µM): 24 h
BR (beating rate), % change from baseline (3 µM, 72h): -54±5 %
Beating below threshold, number of observations/total well numbers (3 µM, 72h): 0/6
Cessation of beating, number of observations/total well numbers (3 µM, 72h): 3/6
EAD, number of observations/total well numbers (3 µM, 72h): 2/6
FPD (field-potential duration), % change from baseline (3 µM, 72h): 224.5±68 %
FPDc (field-potential duration corrected by beat-rate), % change from baseline (3 µM, 72h): 156.4±52.5 %
Flat T-wave-like, number of observations/total well numbers (3 µM, 72h): 1/6
cessation of beating, wells/total wells (3 µM, 72h): 3/6
Beating below threshold, number of observations/total well numbers (3 µM, 96h): 1/6
Cessation of beating, number of observations/total well numbers (3 µM, 96h): 5/6
EAD, number of observations/total well numbers (3 µM, 96h): 0/6
Flat T-wave-like, number of observations/total well numbers (3 µM, 96h): 0/6
cessation of beating, wells/total wells (3 µM, 96h): 6/6
BR (beating rate), % change from baseline (3 µM, 2h): -2±3%
Beating below threshold, number of observations/total well numbers (3 µM, 2h): 0/6
Cessation of beating, number of observations/total well numbers (3 µM, 2h): 0/6
EAD, number of observations/total well numbers (3 µM, 2h): 0/6
FPD (field-potential duration), % change from baseline (3 µM, 2h): 3.6±1.9%
FPDc (field-potential duration corrected by beat-rate), % change from baseline (3 µM, 2h): 2.7±2.1%
Flat T-wave-like, number of observations/total well numbers (3 µM, 2h): 0/6
BR (beating rate), % change from baseline (3 µM, 24h): -18±8 %
Beating below threshold, number of observations/total well numbers (3 µM, 24h): 0/6
Cessation of beating, number of observations/total well numbers (3 µM, 24h): 0/6
EAD, number of observations/total well numbers (3 µM, 24h): 0/6
FPD (field-potential duration), % change from baseline (3 µM, 24h): 23.4±11.8 %
FPDc (field-potential duration corrected by beat-rate), % change from baseline (3 µM, 24h): 15.2±8%
Flat T-wave-like, number of observations/total well numbers (3 µM, 24h): 0/6
BR (beating rate), % change from baseline (3 µM, 48h): -30±8 %
Beating below threshold, number of observations/total well numbers (3 µM, 48h): 0/6
Cessation of beating, number of observations/total well numbers (3 µM, 48h): 0/6
EAD, number of observations/total well numbers (3 µM, 48h): 0/6
FPD (field-potential duration), % change from baseline (3 µM, 48h): 73.1±39.4 %
FPDc (field-potential duration corrected by beat-rate), % change from baseline (3 µM, 48h): 52.6±30.7 %
Flat T-wave-like, number of observations/total well numbers (3 µM, 48h): 0/6
concentration from which prolongation of FPD and EAD-like events were induced (time- and dose-dependent): 1000 nM
